# Experimental data reported in PubChem BioAssay (NCI).
#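 Dose response: 5 concentrations. Exposure: 48 h. Format: 96-well plates. Endpoint: linear interpolation; highest concentration if not reached. Definition used: TGI = concentration required for complete inhibition of growth.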
# Key:
# Assay in all cases: NCI-60 cell line screen, 48 h
# MDA-MB-231 breast = system: MDA-MB-231 breast
# OVCAR-3 ovarian = system: OVCAR-3 ovarian
# SW-620 colon = system: SW-620 colon
# A498 renal = system: A498 renal
# HCC-2998 colon = system: HCC-2998 colon
# U251 CNS = system: U251 CNS
# 786-0 renal = system: 786-0 renal
# TK-10 renal = system: TK-10 renal
# NCI/ADR-RES ovarian = system: NCI/ADR-RES ovarian
# EKVX NSCLC = system: EKVX NSCLC
# MDA-MB-435 = system: MDA-MB-435
# HL-60(TB) leukemia = system: HL-60(TB) leukemia
# ACHN renal = system: ACHN renal
# CCRF-CEM leukemia = system: CCRF-CEM leukemia
# PC-3 prostate = system: PC-3 prostate
# MOLT-4 leukemia = system: MOLT-4 leukemia
# OVCAR-8 ovarian = system: OVCAR-8 ovarian
# IGROV1 ovarian = system: IGROV1 ovarian
# HCT-15 colon = system: HCT-15 colon
# UO-31 renal = system: UO-31 renal
# SNB-75 CNS = system: SNB-75 CNS
# NCI-H460 lung = system: NCI-H460 lung
# SR leukemia = system: SR leukemia
# HT29 colon = system: HT29 colon
# HCT-116 colon = system: HCT-116 colon
# SK-OV-3 ovarian = system: SK-OV-3 ovarian
# NCI-H23 lung = system: NCI-H23 lung
# SK-MEL-2 melanoma = system: SK-MEL-2 melanoma
# UACC-257 melanoma = system: UACC-257 melanoma
# SF-268 CNS = system: SF-268 CNS
# SN12C renal = system: SN12C renal
# OVCAR-5 ovarian = system: OVCAR-5 ovarian
# OVCAR-4 ovarian = system: OVCAR-4 ovarian
# MDA-N = system: MDA-N
# SNB-19 CNS = system: SNB-19 CNS
# UACC-62 melanoma = system: UACC-62 melanoma
# HOP-62 NSCLC = system: HOP-62 NSCLC
# MALME-3M melanoma = system: MALME-3M melanoma
# SK-MEL-28 melanoma = system: SK-MEL-28 melanoma
# MCF7 breast = system: MCF7 breast
# DU-145 prostate = system: DU-145 prostate
# LOX IMVI melanoma = system: LOX IMVI melanoma
# SF-539 CNS = system: SF-539 CNS
# COLO 205 colon = system: COLO 205 colon
# T-47D breast = system: T-47D breast
# RPMI-8226 leukemia = system: RPMI-8226 leukemia
# SF-295 CNS = system: SF-295 CNS
# KM12 colon = system: KM12 colon
# K-562 leukemia = system: K-562 leukemia
# RXF 393 renal = system: RXF 393 renal
# A549 NSCLC = system: A549 NSCLC
# M14 melanoma = system: M14 melanoma
# NCI-H226 lung = system: NCI-H226 lung
# BT-549 breast = system: BT-549 breast
# CAKI-1 renal = system: CAKI-1 renal
# SK-MEL-5 melanoma = system: SK-MEL-5 melanoma
# HOP-92 NSCLC = system: HOP-92 NSCLC
structure (smiles),measurement,setting,value
CCCCN(CCCC)CC(O)c1cc(-c2ccc(Cl)c(Cl)c2)nc2c(Cl)cc(Cl)cc12 (stereo unspecified),TGI,MDA-MB-231 breast,> 100 µM
same,TGI,OVCAR-3 ovarian,> 100 µM
same,TGI,SW-620 colon,39.1 µM
same,TGI,A498 renal,> 100 µM
same,TGI,HCC-2998 colon,> 100 µM
same,TGI,U251 CNS,> 100 µM
same,TGI,786-0 renal,> 100 µM
same,TGI,TK-10 renal,> 100 µM
same,TGI,NCI/ADR-RES ovarian,> 100 µM
same,TGI,EKVX NSCLC,> 100 µM
same,TGI,MDA-MB-435,> 100 µM
same,TGI,HL-60(TB) leukemia,> 100 µM
same,TGI,ACHN renal,> 100 µM
same,TGI,CCRF-CEM leukemia,> 100 µM
same,TGI,PC-3 prostate,> 100 µM
same,TGI,MOLT-4 leukemia,> 100 µM
same,TGI,OVCAR-8 ovarian,> 100 µM
same,TGI,IGROV1 ovarian,> 100 µM
same,TGI,HCT-15 colon,> 100 µM
same,TGI,UO-31 renal,> 100 µM
same,TGI,SNB-75 CNS,> 100 µM
same,TGI,NCI-H460 lung,> 100 µM
same,TGI,SR leukemia,> 100 µM
same,TGI,HT29 colon,> 100 µM
same,TGI,HCT-116 colon,> 100 µM
same,TGI,SK-OV-3 ovarian,> 100 µM
same,TGI,NCI-H23 lung,> 100 µM
same,TGI,SK-MEL-2 melanoma,> 100 µM
same,TGI,UACC-257 melanoma,> 100 µM
same,TGI,SF-268 CNS,> 100 µM
same,TGI,SN12C renal,> 100 µM
same,TGI,OVCAR-5 ovarian,> 100 µM
same,TGI,OVCAR-4 ovarian,> 100 µM
same,TGI,MDA-N,> 100 µM
same,TGI,SNB-19 CNS,> 100 µM
same,TGI,UACC-62 melanoma,> 100 µM
same,TGI,HOP-62 NSCLC,> 100 µM
same,TGI,MALME-3M melanoma,> 100 µM
same,TGI,SK-MEL-28 melanoma,> 100 µM
same,TGI,MCF7 breast,> 100 µM
same,TGI,DU-145 prostate,> 100 µM
same,TGI,LOX IMVI melanoma,> 100 µM
same,TGI,SF-539 CNS,> 100 µM
same,TGI,COLO 205 colon,> 100 µM
same,TGI,T-47D breast,> 100 µM
same,TGI,RPMI-8226 leukemia,> 100 µM
same,TGI,SF-295 CNS,> 100 µM
CC(C)(C)OC/C=C(\Br)CO,TGI,MDA-MB-231 breast,> 100 µM
same,TGI,OVCAR-3 ovarian,> 100 µM
same,TGI,KM12 colon,> 100 µM
same,TGI,SW-620 colon,> 100 µM
same,TGI,A498 renal,> 100 µM
same,TGI,HCC-2998 colon,> 100 µM
same,TGI,K-562 leukemia,> 100 µM
same,TGI,RXF 393 renal,> 100 µM
same,TGI,U251 CNS,> 100 µM
same,TGI,786-0 renal,> 100 µM
same,TGI,NCI/ADR-RES ovarian,> 100 µM
same,TGI,EKVX NSCLC,> 100 µM
same,TGI,MDA-MB-435,> 100 µM
same,TGI,ACHN renal,> 100 µM
same,TGI,CCRF-CEM leukemia,> 100 µM
same,TGI,PC-3 prostate,> 100 µM
same,TGI,MOLT-4 leukemia,> 100 µM
same,TGI,OVCAR-8 ovarian,> 100 µM
same,TGI,HCT-15 colon,> 100 µM
same,TGI,UO-31 renal,> 100 µM
same,TGI,SNB-75 CNS,> 100 µM
same,TGI,NCI-H460 lung,> 100 µM
same,TGI,A549 NSCLC,> 100 µM
same,TGI,HT29 colon,> 100 µM
same,TGI,HCT-116 colon,> 100 µM
same,TGI,SK-OV-3 ovarian,> 100 µM
same,TGI,NCI-H23 lung,> 100 µM
same,TGI,M14 melanoma,> 100 µM
same,TGI,SK-MEL-2 melanoma,> 100 µM
same,TGI,NCI-H226 lung,> 100 µM
same,TGI,UACC-257 melanoma,> 100 µM
same,TGI,BT-549 breast,> 100 µM
same,TGI,SF-268 CNS,> 100 µM
same,TGI,SN12C renal,> 100 µM
same,TGI,OVCAR-5 ovarian,> 100 µM
same,TGI,OVCAR-4 ovarian,> 100 µM
same,TGI,MDA-N,> 100 µM
same,TGI,SNB-19 CNS,> 100 µM
same,TGI,UACC-62 melanoma,> 100 µM
same,TGI,CAKI-1 renal,> 100 µM
same,TGI,HOP-62 NSCLC,> 100 µM
same,TGI,MALME-3M melanoma,> 100 µM
same,TGI,SK-MEL-28 melanoma,> 100 µM
same,TGI,MCF7 breast,> 100 µM
same,TGI,DU-145 prostate,> 100 µM
same,TGI,SF-539 CNS,> 100 µM
same,TGI,COLO 205 colon,> 100 µM
same,TGI,T-47D breast,> 100 µM
same,TGI,RPMI-8226 leukemia,> 100 µM
same,TGI,SF-295 CNS,> 100 µM
C#CCCCC(=C)C[C@@H]1OC(=O)[C@H](C)[C@@H]1O,TGI,OVCAR-3 ovarian,> 100 µM
same,TGI,KM12 colon,> 100 µM
same,TGI,SW-620 colon,> 100 µM
same,TGI,A498 renal,> 100 µM
same,TGI,HCC-2998 colon,> 100 µM
same,TGI,K-562 leukemia,> 100 µM
same,TGI,RXF 393 renal,> 100 µM
same,TGI,U251 CNS,> 100 µM
same,TGI,786-0 renal,> 100 µM
same,TGI,NCI/ADR-RES ovarian,> 100 µM
same,TGI,EKVX NSCLC,> 100 µM
same,TGI,MDA-MB-435,> 100 µM
same,TGI,HL-60(TB) leukemia,> 100 µM
same,TGI,ACHN renal,> 100 µM
same,TGI,CCRF-CEM leukemia,> 100 µM
same,TGI,PC-3 prostate,> 100 µM
same,TGI,MOLT-4 leukemia,> 100 µM
same,TGI,SK-MEL-5 melanoma,> 100 µM
same,TGI,HCT-15 colon,> 100 µM
same,TGI,UO-31 renal,> 100 µM
same,TGI,SNB-75 CNS,> 100 µM
same,TGI,NCI-H460 lung,> 100 µM
same,TGI,A549 NSCLC,> 100 µM
same,TGI,HCT-116 colon,> 100 µM
same,TGI,SK-OV-3 ovarian,> 100 µM
same,TGI,NCI-H23 lung,> 100 µM
same,TGI,M14 melanoma,> 100 µM
same,TGI,SK-MEL-2 melanoma,> 100 µM
same,TGI,SN12C renal,> 100 µM
same,TGI,OVCAR-5 ovarian,> 100 µM
same,TGI,OVCAR-4 ovarian,> 100 µM
same,TGI,MDA-N,> 100 µM
same,TGI,SNB-19 CNS,> 100 µM
same,TGI,CAKI-1 renal,> 100 µM
same,TGI,HOP-62 NSCLC,> 100 µM
same,TGI,HOP-92 NSCLC,> 100 µM
same,TGI,SK-MEL-28 melanoma,> 100 µM
same,TGI,MCF7 breast,> 100 µM
same,TGI,DU-145 prostate,> 100 µM
same,TGI,LOX IMVI melanoma,> 100 µM
same,TGI,COLO 205 colon,> 100 µM
same,TGI,T-47D breast,> 100 µM
same,TGI,RPMI-8226 leukemia,> 100 µM
same,TGI,SF-295 CNS,> 100 µM
